This is an account of results in ChEMBL document CHEMBL4732213, “Discovery of novel ceramide analogs with favorable pharmacokinetic properties and combination with AKT inhibitor against colon cancer” (Eur J Med Chem, 2021).

The source made the active and inactive calls.

Data set [1] relates to HT-29. Nature of the data set: Antiproliferative activity against human HT-29 cells measured after 72 hrs by sulforhodamine B assay. The note with it: HT-29, 72 h. The format is functional, cell-based.
The test system of data set [2] is HT-29. Briefly: Upregulation of p21 protein expression in human HT29 cells at 10 uM incubated for 24 hrs by Western blotting analysis. Type of data set: functional, cell-based. For orientation: Immunoblotting shows a protein as a band on a membrane.
Data set [3] has as its system HT-29. Briefly: Downregulation of c-Myc protein expression level in human HT29 cells at 10 uM incubated for 24 hrs by Western blotting analysis. Type of data set: functional, cell-based.
The nature of data set [4]: Toxicity in BALB/c nude mouse xenografted with human HT-29 cells assessed as effect on body weight at 50 mg/kg, po measured every 3 day by electronic caliper method. The format is organism-based. The note with it: in vivo, 72 h.
Data set [5] concerns HT-29. Nature of the data set: Induction of apoptosis in human HT29 cells assessed as inhibition of AKT phosphorylation at 10 uM after 48 hrs by Western blotting analysis. The format is functional, cell-based.
Data set [6] has as its system HT-29. Briefly: Induction of cell cycle arrest in human HT29 cells assessed as accumulation at G0/G1 phase at 10 uM after 24 hrs by PI staining based flow cytometry analysis. The format is functional. (A flow cytometer gives signals particle by particle.)
The test system of data set [7] is HT-29. Briefly: Induction of ROS generation in human HT29 cells at 10 uM after 16 hrs by flow cytometric analysis. The format is functional, cell-based.
Data set [8] has as its system HT-29. Briefly: Antitumor activity against human HT-29 cells xenografted in BALB/c nude mouse assessed as tumor growth inhibition at 50 mg/kg, po Q2D measured every 3 days by electronic caliper method. Conditions: HT-29, po, 72 h, time 3 day, read-out: TGI. The format is functional. For orientation: A xenograft is tissue or cells of one species grown in another, often human tumour cells in immunodeficient mice.

Data set [9] concerns HT-29. Nature of the data set: Induction of apoptosis in human HT29 cells at 7.5 uM after 48 hrs by Annexin-V-FITC/PI staining based flow cytometric analysis. Type of data set: functional, cell-based.
Data set [10] deals with HT-29. Nature of the data set: Down regulation of p-RB expression in human HT29 cells at 10 uM incubated for 24 hrs by Western blotting analysis. The format is functional, cell-based.
Data set [11] is described as follows: Tmax in BALB/c mouse at 50 mg/kg, ip. Type of data set: ADME, organism-based. Conditions: in vivo.
Data set [12] is described as follows: Cmax in BALB/c mouse at 50 mg/kg, ip. Type of data set: ADME, organism-based. The arrangement: route intraperitoneal, dose 50 mg/kg. The note with it: in vivo.
Data set [13] is described as follows: Half life in BALB/c mouse at 10 mg/kg, iv. The format is ADME, organism-based. The note with it: in vivo.
A short description of data set [14]: AUC(0 to infinity) in BALB/c mouse at 50 mg/kg, ip. Type of data set: ADME, organism-based. Set-up: time infinity, route intraperitoneal, dose 50 mg/kg. Conditions: in vivo.
Data set [15] is described as follows: AUC(0 to t) in BALB/c mouse at 10 mg/kg, iv. The format is ADME, organism-based. Set-up: dose 10 mg/kg. Conditions: in vivo.
Data set [16] in a line: AUC(0 to t) in BALB/c mouse at 50 mg/kg, ip. Type of data set: ADME, organism-based. The arrangement: dose 50 mg/kg. The note with it: in vivo.
Data set [17] in a line: Half life in BALB/c mouse at 50 mg/kg, ip. Type of data set: ADME, organism-based. The note with it: in vivo.
Data set [18] in a line: AUC(0 to infinity) in BALB/c mouse at 10 mg/kg, iv. The format is ADME, organism-based. Set-up: route intravenous, time infinity, dose 10 mg/kg. Conditions: in vivo.

For orientation: IC50 means the concentration at which inhibition is half-maximal. A lower IC50 goes with greater potency. `CCCCCCCOc1ccc(CCC(CO)(CO)NC(=O)OC(C)(C)C)c2ccccc12` had a half-maximal inhibitory concentration (IC50) in the data set on HT-29 [1] of 21.4 µM. Same read-out and setting: with `CCCCCCCCc1ccc(CCC(CO)(CO)NC(C)=O)c2ccccc12` the figure was 36.5 µM. On to `CCCCCCCCc1ccc(CCC(CO)(CO)NC(=O)C(C)CC)c2ccccc12` (configuration not stated), for which, in the data set with HT-29 [1], half-maximal inhibition (IC50) was put at 25.6 µM. The same measure, in the same setting: with `CCCCCCCOc1ccc(CCC(CO)(CO)NC(=O)CCCCCCC)c2ccccc12` the figure was 18.8 µM.

In the data set on HT-29 [1], `CCCCCCCOc1ccc(CCC(CO)(CO)NC(=O)CCCCC)c2ccccc12` showed an IC50 of 21.9 µM. On to `CCCCCCCCc1ccc(CCC(CO)(CO)NC(=O)CCC)c2ccccc12`, for which, in the data set with HT-29 [1], 26.4 µM corresponded to half-maximal inhibition (IC50). On to `NC1(c2ccc(-c3nc4ccn5c(=O)[nH]nc5c4cc3-c3ccccc3)cc2)CCC1` [MK-2206], for which the result in the data set with HT-29 [2], in the data set with HT-29 [3], in the data set with HT-29 [9] and in the data set on HT-29 [10] was inactive. In [4], the Activity result is recorded as “Non-Toxic”. Also, the result with HT-29 [5], in the data set on HT-29 [6] and in the data set with HT-29 [7] was Active. In addition, the inhibition in vivo at 50 mg/kg in the data set with HT-29 [8] was determined as 30.9%. In the data set on HT-29 [1], `CCCCc1ccc(COc2ccc(CCC(CO)(CO)NC(C)=O)c3ccccc23)cc1` came in with a half-inhibitory concentration (IC50) of 27.1 µM. In other words, the double-digit micromolar range. On the same count and under the same terms, with `CCCCCCCOc1ccc(CCC(CO)(CO)NC(=O)OCCCC)c2ccccc12` the figure was 22.4 µM; with `CCCCCCCCc1ccc(C(O)CC(CO)(CO)NC(C)=O)c2ccccc12` (configuration not stated), 77.9 µM. Still for that read-out and setting: the value for `C/C=C/C(=O)NC(CO)(CO)CCc1ccc(OCCCCCCC)c2ccccc12` was 36.4 µM. On the same count and under the same terms, the value for `COc1ccc(CCC(CO)(CO)NC(C)=O)c2ccccc12` was > 80 µM; that for `CC(=O)NC(CO)(CO)CCc1ccc(O)c2ccccc12` was > 80 µM; that for `CCCCCCCCc1ccc(CCC(CO)(CO)NC(=O)c2ccccc2)c2ccccc12` was 23 µM. `CCCCCCCOc1ccc(CCC(CO)(CO)NC(=O)OCc2ccccc2)c2ccccc12` registered a 50% inhibitory concentration (IC50) with HT-29 [1] of 60.5 µM. Compound `CCCCCCCCc1ccc(CCC(CO)(CO)NC(=O)CCCCC)c2ccccc12` gave an IC50 with HT-29 [1] of 20.3 µM. This IC50 lies about 3-fold lower than the previous one. For the compound `CCCCc1ccc(Oc2ccc(CCC(CO)(CO)NC(C)=O)c3ccccc23)cc1`, the IC50 in the data set on HT-29 [1] is > 80 µM.

Consider `CCCCCCCCCCCCCC(=O)NC(CO)(CO)CCc1ccc(CCCCCCCC)c2ccccc12`, for which the IC50 in the data set with HT-29 [1] was > 80 µM. By Tmax is commonly meant the time from dosing to the highest level. By Cmax is commonly meant the highest concentration seen after dosing. Broadly, the half-life is the time needed for the level to fall by half in the phase considered. Lower therefore signals rapid decline. As a reminder, the AUC(0-inf) is the area under the concentration-time curve extrapolated to infinity. Broadly, the AUC(0-t) is the area under the concentration-time curve up to a stated or last time point. A lower AUC(0-t) goes with less exposure. For `CCCCCCCCCCCCC/C=C/[C@@H](O)[C@H](CO)NC(C)=O`, in data set [11], the Tmax was 0.417 h. The same compound yielded a Cmax in data set [12] of 2740 ng/mL. Also, the half-life in data set [13] is 5.08 h; in data set [17], 3.99 h. Moreover, the IC50 in the data set on HT-29 [1] turned out to be 25.9 µM. The AUC(0-inf) in data set [14] was 4090 ng·h/mL; in data set [18] it was 1630 ng·h/mL. Further, the AUC(0-t) was 1620 ng·h/mL in [15] and 4060 ng·h/mL in data set [16].

In the case of `CCCCCCCCCC(=O)NC(CO)(CO)CCc1ccc(CCCCCCCC)c2ccccc12`, the IC50 in the data set on HT-29 [1] is > 80 µM. Take `CCCCCCCCc1ccc(CCC(CO)(CO)NC(=O)CCCCCCC)c2ccccc12`: half-maximal inhibition in the data set with HT-29 [1] (IC50) required 22 µM. This lies in the double-digit micromolar range.
